13 compounds from patent US8299048B2, “Hexahydrocyclopentyl[f]indazole sulfonamides and derivatives thereof as selective glucocorticoid receptor modulators” (Merck Sharp & Dohme Corp., priority 2008, dated 2012) can be followed below.

Molecules are shown by their SMILES.

For assay [1], the target named is T1, human GR (Homo sapiens, UniProt P04150).
T1 sequence (P04150 1-777): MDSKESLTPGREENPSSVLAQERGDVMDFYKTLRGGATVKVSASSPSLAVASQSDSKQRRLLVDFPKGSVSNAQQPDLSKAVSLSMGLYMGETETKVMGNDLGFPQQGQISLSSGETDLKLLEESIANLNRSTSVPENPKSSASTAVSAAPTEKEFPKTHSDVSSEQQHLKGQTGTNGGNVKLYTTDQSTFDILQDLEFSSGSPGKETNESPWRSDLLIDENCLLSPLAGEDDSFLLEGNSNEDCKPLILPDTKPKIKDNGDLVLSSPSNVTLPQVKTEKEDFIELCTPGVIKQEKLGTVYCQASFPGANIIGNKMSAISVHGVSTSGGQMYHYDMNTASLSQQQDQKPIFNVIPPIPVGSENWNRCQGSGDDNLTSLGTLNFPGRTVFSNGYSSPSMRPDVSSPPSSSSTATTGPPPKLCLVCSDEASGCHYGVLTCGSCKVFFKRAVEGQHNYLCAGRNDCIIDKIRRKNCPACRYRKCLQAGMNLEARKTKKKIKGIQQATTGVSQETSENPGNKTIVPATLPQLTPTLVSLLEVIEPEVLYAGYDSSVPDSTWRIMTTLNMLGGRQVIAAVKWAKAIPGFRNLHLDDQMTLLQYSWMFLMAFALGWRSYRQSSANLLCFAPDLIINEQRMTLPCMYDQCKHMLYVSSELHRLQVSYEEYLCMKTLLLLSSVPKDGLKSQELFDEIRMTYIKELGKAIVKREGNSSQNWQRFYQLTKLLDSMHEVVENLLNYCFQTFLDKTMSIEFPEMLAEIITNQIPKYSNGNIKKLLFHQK
In words: Trans-Activation Modulation of Glucocorticoid Receptor (GRAMMER), MMTV-LUC reporter, agonist mode. Particulars: for Emax: A549, A549 cells, maximum activity, read-out: Transactivation A549 Cells GRAMMER Emax; for EC50: A549 cells, inflection point, read-out: Transactivation A549 Cells GRAMMER IP. Also on record: endogenous in cells. Format: cell-based. In short, it runs like this: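 Readout is luciferase from a modified MMTV LTR promoter after 24 h compound exposure alongside 10 nM dexamethasone (100% activity reference), DMSO ≤1%.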

The target of assay [2] is T1, human GR. In words: Transrepression Assay (GITAR), TNFα-β-lactamase reporter in U937 cells. The settings on record: for GITAR > GRAMM % SEP: GITAR Emax minus GRAMMER Emax; for EC50: U937 cells, inflection point, read-out: Transrepression U937 Cells GITAR IP. The assay is classed as cell-based. Also on record: U937 cells contain an endogenous glucocorticoid receptor (GR); endogenous in cells; host or cells: U937 cells stably transfected with the TNF-alpha promoter/beta-lactamase reporter. In short, it runs like this:
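First, U937 reporter cells (TNF-α promoter–β-lactamase, native GR) received compound for 30–45 min at 37 °C. Next, PMA (5 ng/ml) and LPS (100 ng/ml) final were added for about 18 hr. Finally, CCF2-AM loading gave the read-out, with 100 nM dexamethasone as 100%.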

The mark [3] stands for this setting: U-937, U937 cells, maximum activity, read-out: Transrepression U937 Cells GITAR Emax.
Setting [4] is: U-937, activity repressed by 100 nM dexamethasone alone set as 100%, read-out: maximal activity in the transrepression (GITAR) assay.

As to `C[C@]12Cc3cnn(-c4ccc(F)cc4)c3C=C1CC[C@@H]2CN(CC1CC1)S(=O)(=O)/C=C/c1ccccc1` [Example 13, (E)-N-(cyclopropylmethyl)-N-{[(4αR,5S)-1-(4-fluorophenyl)-4α-methyl-1,4,4α,5,6,7-hexahydrocyclopenta[f]indazol-5-yl]methyl}-2-phenylethylenesulfonamide], the Emax in assay [1] was 8.3%; in assay [2] (setting [3]) it was 16.1%; in assay [2] (setting [4]) it was greater than 5%. Besides, the EC50 was 82.9 nM in assay [1] and 305 nM in assay [2]. Moreover, the “GITAR > GRAMM % SEP” value in assay [2] was 7.8%.

Take `CNC(=O)Nc1ccc(S(=O)(=O)N(CC2CC2)C[C@H]2CCC3=Cc4c(cnn4-c4ccc(F)cc4)C[C@@]32C)c(Cl)c1` [Example 14, 2-chloro-N-(cyclopropylmethyl)-N-{[(4αR,5S)-1-(4-fluorophenyl)-4α-methyl-1,4,4α,5,6,7-hexahydrocyclopenta[f]indazol-5-yl]methyl}-4-{[(methylamino)carbonyl]amino}-benzenesulfonamide]: the Emax in assay [1] was 25.2%; in assay [2] (setting [3]), 59.3%; in assay [2] (setting [4]), greater than 5%. The EC50 is 344 nM in assay [1] and 553 nM in assay [2]. The “GITAR > GRAMM % SEP” value in assay [2] was 34.1%.

In the case of `C[C@]12Cc3cnn(-c4ccc(F)cc4)c3C=C1CC[C@@H]2CN(CC1CC1)S(=O)(=O)c1ccc(F)c(Cl)c1` [Example 15, 3-chloro-N-(cyclopropylmethyl)-4-fluoro-N-{[(4αR,5S)-1-(4-fluorophenyl)-4α-methyl-1,4,4α,5,6,7-hexahydrocyclopenta[f]indazol-5-yl]methyl}benzenesulfonamide], the Emax in assay [1] was 27.6%; in assay [2] (setting [3]), 59%; in assay [2] (setting [4]), greater than 5%. The figures for the EC50 in assay [1] and in assay [2] were 292 nM and 258 nM, respectively. Also, in assay [2], the “GITAR > GRAMM % SEP” value came to 31.4%.

As to `C[C@]12Cc3cnn(-c4ccc(F)cc4)c3C=C1CC[C@@H]2CN(CCC#N)S(=O)(=O)c1ccccc1F` [Example 16, N-(2-cyanoethyl)-2-fluoro-N-{[(4αR,5S)-1-(4-fluorophenyl)-4α-methyl-1,4,4α,5,6,7-hexahydrocyclopenta[f]indazol-5-yl]methyl}benzenesulfonamide], the values for the Emax in assay [1], in assay [2] (setting [3]) and in assay [2] (setting [4]) were 53%, 84.5% and greater than 5%, respectively. Also, the EC50 in assay [1] is 254 nM; in assay [2], 268 nM.

In the case of `C[C@]12Cc3cnn(-c4ccc(F)cc4)c3C=C1CC[C@@H]2CN(CCO)S(=O)(=O)c1ccccc1F` [Example 17, 2-fluoro-N-{[(4αR,5S)-1-(4-fluorophenyl)-4α-methyl-1,4,4α,5,6,7-hexahydrocyclopenta[f]indazol-5-yl]methyl}-N-(2-hydroxyethyl)benzenesulfonamide], the values for the Emax in assay [1], in assay [2] (setting [3]) and in assay [2] (setting [4]) were 37.3%, 82.1% and greater than 5%, respectively. Moreover, the EC50 in assay [1] is 220 nM; in assay [2], 347 nM.

Consider `COC(=O)c1ccccc1S(=O)(=O)N(CC1CC1)C[C@H]1CCC2=Cc3c(cnn3-c3ccc(F)cc3)C[C@@]21C` [Example 18, methyl 2-[((cyclopropylmethyl){[(4αR,5S)-1-(4-fluorophenyl)-4α-methyl-1,4,4α,5,6,7-hexahydrocyclopenta[f]indazol-5 yl]methyl}amino)sulfonyl]benzoate], for which the Emax was 20% in assay [1], 35.3% in assay [2] (setting [3]) and greater than 5% in assay [2] (setting [4]). Further, the EC50 was found to be 394 nM in assay [1] and 415 nM in assay [2]. Further, in assay [2], the “GITAR > GRAMM % SEP” value worked out at 15.3%.

`C[C@]12Cc3cnn(-c4ccc(F)cc4)c3C=C1CC[C@@H]2CN(CCO)S(=O)(=O)c1ccc(F)c(Cl)c1` [Example 19, 3-chloro-4-fluoro-N-{[(4αR,5S)-1-(4-fluorophenyl)-4α-methyl-1,4,4α,5,6,7-hexahydrocyclopenta[f]indazol-5-yl]methyl}-N-(2-hydroxyethyl)benzenesulfonamide]: the Emax in assay [1] is 20.6%; in assay [2] (setting [3]), 69.8%; in assay [2] (setting [4]), greater than 5%. The EC50 amounted to 1190 nM in assay [1] and 1720 nM in assay [2]. The “GITAR > GRAMM % SEP” value in assay [2] stood at 49.1%.

Turning to `C[C@]12Cc3cnn(-c4ccc(F)cc4)c3C=C1CC[C@@H]2CN(CC#N)S(=O)(=O)c1ccc(F)c(Cl)c1` [Example 20, 3-chloro-N-(cyanomethyl)-4-fluoro-N-{[(4αR,5S)-1-(4-fluorophenyl)-4α-methyl-1,4,4α,5,6,7-hexahydrocyclopenta[f]indazol-5-yl]methyl}benzenesulfonamide], the Emax in assay [1] was 68.1%; in assay [2] (setting [3]), 69.7%; in assay [2] (setting [4]) it was greater than 5%. For the same compound, the figures for the EC50 in assay [1] and in assay [2] were 910 nM and 373 nM, respectively. Moreover, in assay [2], the “GITAR > GRAMM % SEP” value was found to be 1.6%.

On to `C[C@]12Cc3cnn(-c4ccc(F)cc4)c3C=C1CC[C@@H]2CN(CC1CC1)S(=O)(=O)Cc1ccccc1` [Example 21, N-(cyclopropylmethyl)-N-{[(4αR,5S)-1-(4-fluorophenyl)-4α-methyl-1,4,4α,5,6,7-hexahydrocyclopenta[f]indazol-5-yl]methyl}-1-phenylmethanesulfonamide], for which the Emax was 33.5% in assay [1], 58.7% in assay [2] (setting [3]) and greater than 5% in assay [2] (setting [4]). The EC50 in assay [1] was 519 nM; in assay [2], 365 nM.

`Cc1oncc1S(=O)(=O)N(CC#N)C[C@H]1CCC2=Cc3c(cnn3-c3ccc(F)cc3)C[C@@]21C` [Example 23, N-(cyanomethyl)-N-{[(4αR,5S)-1-(4-fluorophenyl)-4α-methyl-1,4,4α,5,6,7-hexahydrocyclopenta[f]indazol-5-yl]methyl}-5-methylisoxazole-4-sulfonamide]: the Emax in assay [1] was 2.7%; in assay [2] (setting [3]) it was 34%; in assay [2] (setting [4]) it was greater than 5%. Also, the EC50 turned out to be 8790 nM in assay [1] and 2250 nM in assay [2]. The “GITAR > GRAMM % SEP” value in assay [2] is 31.3%.

Take `C[C@]12Cc3cnn(-c4ccc(F)cc4)c3C=C1CC[C@@H]2CN(CC#N)S(=O)(=O)c1cc(Cl)c(Cl)s1` [Example 24, 4,5-dichloro-N-(cyanomethyl)-N-{[(4αR,5S)-1-(4-fluorophenyl)-4α-methyl-1,4,4α,5,6,7-hexahydrocyclopenta[f]indazol-5-yl]methyl}thiophene-2-sulfonamide]: the Emax is 10.5% in assay [1], 37.7% in assay [2] (setting [3]) and greater than 5% in assay [2] (setting [4]). The EC50 in assay [1] was determined as 845 nM; in assay [2], 565 nM. Moreover, the “GITAR > GRAMM % SEP” value in assay [2] came to 27.2%.

With `C[C@]12Cc3cnn(-c4ccc(F)cc4)c3C=C1CC[C@@H]2CN(CC#N)S(=O)(=O)c1ccc(F)c(F)c1` [Example 25, N-(cyanomethyl)-3,4-difluoro-N-{[(4αR,5S)-1-(4-fluorophenyl)-4α-methyl-1,4,4α,5,6,7-hexahydrocyclopenta[f]indazol-5-yl]methyl}benzenesulfonamide], the Emax was 76.4% in assay [1], 89.4% in assay [2] (setting [3]) and greater than 5% in assay [2] (setting [4]). For the same compound, the EC50 was 453 nM in assay [1] and 222 nM in assay [2]. In assay [2], the “GITAR > GRAMM % SEP” value came to 13.0%.

For `C[C@]12Cc3cnn(-c4ccc(F)cc4)c3C=C1CC[C@@H]2CN(CC#N)S(=O)(=O)c1cccc(Cl)c1Cl` [Example 26, 2,3-dichloro-N-(cyanomethyl)-N-{[(4αR,5S)-1-(4-fluorophenyl)-4α-methyl-1,4,4α,5,6,7-hexahydrocyclopenta[f]indazol-5-yl]methyl}benzenesulfonamide], the Emax in assay [1] was 5.8%; in assay [2] (setting [3]) it was 16%; in assay [2] (setting [4]) it was greater than 5%. The results for the EC50 in assay [1] and in assay [2] were 939 nM and 25 nM, respectively. Also, the “GITAR > GRAMM % SEP” value in assay [2] was found to be 10.2%.
